# From ChEMBL document CHEMBL2331144, “Synthesis and anticancer activity of analogues of phenstatin, with a phenothiazine A-ring, as a new class of microtubule-targeting agents” (Bioorg Med Chem Lett, 2013)
# Assays:
# NCI-H522 = assay: Growth inhibition of human NCI-H522 cells after 48 hrs by sulforhodamine B assay; assay type: functional; conditions: NCI-H522, 48 h
# COLO 205 = assay: Growth inhibition of human COLO205 cells after 48 hrs by sulforhodamine B assay; assay type: functional; conditions: COLO 205, 48 h
# NCI-H460 = assay: Growth inhibition of human NCI-H460 cells after 48 hrs by sulforhodamine B assay; assay type: functional; conditions: NCI-H460, 48 h
# NCI-H23 = assay: Growth inhibition of human NCI-H23 cells after 48 hrs by sulforhodamine B assay; assay type: functional; conditions: NCI-H23, 48 h
# HOP-62 = assay: Growth inhibition of human HOP62 cells after 48 hrs by sulforhodamine B assay; assay type: functional; conditions: HOP-62, 48 h
# HOP-92 = assay: Growth inhibition of human HOP92 cells after 48 hrs by sulforhodamine B assay; assay type: functional; conditions: HOP-92, 48 h
# A549 = assay: Growth inhibition of human A549/ATCC cells after 48 hrs by sulforhodamine B assay; assay type: functional; conditions: A549, 48 h
# SR = assay: Growth inhibition of human SR cells after 48 hrs by sulforhodamine B assay; assay type: functional
# RPMI-8226 = assay: Growth inhibition of human RPMI8226 cells after 48 hrs by sulforhodamine B assay; assay type: functional; conditions: RPMI-8226, 48 h
# MOLT-4 = assay: Growth inhibition of human MOLT4 cells after 48 hrs by sulforhodamine B assay; assay type: functional; conditions: MOLT-4, 48 h
# K562 = assay: Growth inhibition of human K562 cells after 48 hrs by sulforhodamine B assay; assay type: functional; conditions: K562, 48 h
# HL-60(TB) = assay: Growth inhibition of human HL-60(TB) cells after 48 hrs by sulforhodamine B assay; assay type: functional; conditions: HL-60, 48 h
# CCRF-CEM = assay: Growth inhibition of human CCRF-CEM cells after 48 hrs by sulforhodamine B assay; assay type: functional
# [1] = Inhibition of sheep brain tubulin polymerization using DAPI by fluorimetry; parameters: species or system Ovis aries
# Ovis aries = organism: Ovis aries; assay: Inhibition of sheep brain tubulin polymerization at 100 uM using DAPI by fluorimetry
# MDA-MB-468 = assay: Growth inhibition of human MDA-MB-468 cells after 48 hrs by sulforhodamine B assay; assay type: functional; conditions: MDA-MB-468, 48 h
# BT-549 = assay: Growth inhibition of human BT549 cells after 48 hrs by sulforhodamine B assay; assay type: functional; conditions: BT-549, 48 h
# [2] = Growth inhibition of human Hs 578T cells after 48 hrs by sulforhodamine B assay; assay type: functional
# MDA-MB-231 = assay: Growth inhibition of human MDA-MB-231 cells after 48 hrs by sulforhodamine B assay; assay type: functional; conditions: MDA-MB-231, 48 h
# MCF7 = assay: Growth inhibition of human MCF7 cells after 48 hrs by sulforhodamine B assay; assay type: functional; conditions: MCF7, 48 h
# SF-539 = assay: Growth inhibition of human SF539 cells after 48 hrs by sulforhodamine B assay; assay type: functional; conditions: SF-539, 48 h
# SNB-75 = assay: Growth inhibition of human SNB75 cells after 48 hrs by sulforhodamine B assay; assay type: functional; conditions: SNB-75, 48 h
# SF-295 = assay: Growth inhibition of human SF295 cells after 48 hrs by sulforhodamine B assay; assay type: functional; conditions: SF-295, 48 h
# SF-268 = assay: Growth inhibition of human SF268 cells after 48 hrs by sulforhodamine B assay; assay type: functional; conditions: SF-268, 48 h
# PC-3 = assay: Growth inhibition of human PC3 cells after 48 hrs by sulforhodamine B assay; assay type: functional; conditions: PC-3, 48 h
# TK-10 = assay: Growth inhibition of human TK10 cells after 48 hrs by sulforhodamine B assay; assay type: functional; conditions: TK-10, 48 h
# DU-145 = assay: Growth inhibition of human DU145 cells after 48 hrs by sulforhodamine B assay; assay type: functional; conditions: DU-145, 48 h
# ACHN = assay: Growth inhibition of human ACHN cells after 48 hrs by sulforhodamine B assay; assay type: functional
# 786-0 = assay: Growth inhibition of human 786-0 cells after 48 hrs by sulforhodamine B assay; assay type: functional; conditions: 786-0, 48 h
# UO-31 = assay: Growth inhibition of human UO31 cells after 48 hrs by sulforhodamine B assay; assay type: functional; conditions: UO-31, 48 h
# RXF 393 = assay: Growth inhibition of human RXF393 cells after 48 hrs by sulforhodamine B assay; assay type: functional; conditions: RXF 393, 48 h
# SN12C = assay: Growth inhibition of human SN12C cells after 48 hrs by sulforhodamine B assay; assay type: functional
# CAKI-1 = assay: Growth inhibition of human CAKI-1 cells after 48 hrs by sulforhodamine B assay; assay type: functional; conditions: CAKI-1, 48 h
# A498 = assay: Growth inhibition of human A498 cells after 48 hrs by sulforhodamine B assay; assay type: functional; conditions: A498, 48 h
# IGROV-1 = assay: Growth inhibition of human IGROV1 cells after 48 hrs by sulforhodamine B assay; assay type: functional; conditions: IGROV-1, 48 h
# SK-OV-3 = assay: Growth inhibition of human SKOV3 cells after 48 hrs by sulforhodamine B assay; assay type: functional; conditions: SK-OV-3, 48 h
# [3] = Growth inhibition of human NCI-ADR-RES cells after 48 hrs by sulforhodamine B assay; assay type: functional
# OVCAR-8 = assay: Growth inhibition of human OVCAR8 cells after 48 hrs by sulforhodamine B assay; assay type: functional; conditions: OVCAR-8, 48 h
# OVCAR-4 = assay: Growth inhibition of human OVCAR4 cells after 48 hrs by sulforhodamine B assay; assay type: functional; conditions: OVCAR-4, 48 h
# OVCAR-3 = assay: Growth inhibition of human OVCAR3 cells after 48 hrs by sulforhodamine B assay; assay type: functional; conditions: OVCAR-3, 48 h
# SK-MEL-5 = assay: Growth inhibition of human SK-MEL-5 cells after 48 hrs by sulforhodamine B assay; assay type: functional; conditions: SK-MEL-5, 48 h
# UACC-257 = assay: Growth inhibition of human UACC257 cells after 48 hrs by sulforhodamine B assay; assay type: functional; conditions: UACC-257, 48 h
# LOX IMVI = assay: Growth inhibition of human LOXIMVI cells after 48 hrs by sulforhodamine B assay; assay type: functional
# UACC-62 = assay: Growth inhibition of human UACC62 cells after 48 hrs by sulforhodamine B assay; assay type: functional; conditions: UACC-62, 48 h
# SK-MEL-28 = assay: Growth inhibition of human SK-MEL-28 cells after 48 hrs by sulforhodamine B assay; assay type: functional; conditions: SK-MEL-28, 48 h
# SK-MEL-2 = assay: Growth inhibition of human SK-MEL-2 cells after 48 hrs by sulforhodamine B assay; assay type: functional; conditions: SK-MEL-2, 48 h
# MDA-MB-435 = assay: Growth inhibition of human MDA-MB-435 cells after 48 hrs by sulforhodamine B assay; assay type: functional; conditions: MDA-MB-435, 48 h
# M14 = assay: Growth inhibition of human M14 cells after 48 hrs by sulforhodamine B assay; assay type: functional; conditions: M14, 48 h
# SW-620 = assay: Growth inhibition of human SW620 cells after 48 hrs by sulforhodamine B assay; assay type: functional; conditions: SW-620, 48 h
# KM12 = assay: Growth inhibition of human KM12 cells after 48 hrs by sulforhodamine B assay; assay type: functional; conditions: KM12, 48 h
# HT-29 = assay: Growth inhibition of human HT-29 cells after 48 hrs by sulforhodamine B assay; assay type: functional; conditions: HT-29, 48 h
# HCT-116 = assay: Growth inhibition of human HCT116 cells after 48 hrs by sulforhodamine B assay; assay type: functional; conditions: HCT-116, 48 h
# HCT-15 = assay: Growth inhibition of human HCT15 cells after 48 hrs by sulforhodamine B assay; assay type: functional; conditions: HCT-15, 48 h
# [4] = Growth inhibition of human HCC2998 cells after 48 hrs by sulforhodamine B assay; assay type: functional; conditions: HCC 2998, 48 h
# T47D = assay: Growth inhibition of human T47D cells after 48 hrs by sulforhodamine B assay; assay type: functional
# OVCAR-5 = assay: Growth inhibition of human OVCAR5 cells after 48 hrs by sulforhodamine B assay; assay type: functional; conditions: OVCAR-5, 48 h
# Malme-3M = assay: Growth inhibition of human MALME-3M cells after 48 hrs by sulforhodamine B assay; assay type: functional
smiles,measurement,setting,value
COc1ccc(C(=O)N2c3ccccc3Sc3ccccc32)cc1N,GI50,NCI-H522,35 nM
same,GI50,COLO 205,193 nM
same,GI50,NCI-H460,289 nM
same,GI50,NCI-H23,437 nM
same,GI50,HOP-62,226 nM
same,GI50,HOP-92,277 nM
same,GI50,A549,187 nM
same,GI50,SR,30 nM
same,GI50,RPMI-8226,328 nM
same,GI50,MOLT-4,380 nM
same,GI50,K562,40 nM
same,GI50,HL-60(TB),245 nM
same,GI50,CCRF-CEM,268 nM
same,IC50,[1],11800 nM
same,inhibition,Ovis aries,99%
same,GI50,MDA-MB-468,50 nM
same,GI50,BT-549,877 nM
same,GI50,[2],424 nM
same,GI50,MDA-MB-231,310 nM
same,GI50,MCF7,93 nM
same,GI50,SF-539,164 nM
same,GI50,SNB-75,257 nM
same,GI50,SF-295,71 nM
same,GI50,SF-268,958 nM
same,GI50,PC-3,310 nM
same,GI50,TK-10,575 nM
same,GI50,DU-145,291 nM
same,GI50,ACHN,472 nM
same,GI50,786-0,524 nM
same,GI50,UO-31,650 nM
same,GI50,RXF 393,130 nM
same,GI50,SN12C,798 nM
same,GI50,CAKI-1,290 nM
same,GI50,A498,129 nM
same,GI50,IGROV-1,721 nM
same,GI50,SK-OV-3,244 nM
same,GI50,[3],80 nM
same,GI50,OVCAR-8,366 nM
same,GI50,OVCAR-4,1210 nM
same,GI50,OVCAR-3,101 nM
same,GI50,SK-MEL-5,53 nM
same,GI50,UACC-257,1940 nM
same,GI50,LOX IMVI,881 nM
same,GI50,UACC-62,127 nM
same,GI50,SK-MEL-28,407 nM
same,GI50,SK-MEL-2,134 nM
same,GI50,MDA-MB-435,29 nM
same,GI50,M14,90 nM
same,GI50,SW-620,90 nM
same,GI50,KM12,97 nM
same,GI50,HT-29,151 nM
same,GI50,HCT-116,166 nM
same,GI50,HCT-15,73 nM
same,GI50,[4],683 nM
CCOc1ccc(C(=O)N2c3ccccc3Sc3ccccc32)cc1Cl,GI50,NCI-H522,221 nM
same,GI50,COLO 205,354 nM
same,GI50,NCI-H460,368 nM
same,GI50,NCI-H23,999 nM
same,GI50,HOP-62,512 nM
same,GI50,HOP-92,272 nM
same,GI50,A549,620 nM
same,GI50,SR,142 nM
same,GI50,RPMI-8226,424 nM
same,GI50,MOLT-4,408 nM
same,GI50,K562,277 nM
same,GI50,HL-60(TB),315 nM
same,GI50,CCRF-CEM,361 nM
same,inhibition,Ovis aries,48%
same,GI50,T47D,466 nM
same,GI50,MDA-MB-468,257 nM
same,GI50,BT-549,613 nM
same,GI50,[2],573 nM
same,GI50,MDA-MB-231,531 nM
same,GI50,MCF7,419 nM
same,GI50,SF-539,239 nM
same,GI50,SNB-75,283 nM
same,GI50,SF-295,254 nM
same,GI50,SF-268,1760 nM
same,GI50,PC-3,390 nM
same,GI50,TK-10,857 nM
same,GI50,DU-145,476 nM
same,GI50,ACHN,447 nM
same,GI50,786-0,481 nM
same,GI50,UO-31,520 nM
same,GI50,RXF 393,236 nM
same,GI50,SN12C,777 nM
same,GI50,CAKI-1,457 nM
same,GI50,A498,210 nM
same,GI50,IGROV-1,1020 nM
same,GI50,SK-OV-3,623 nM
same,GI50,[3],376 nM
same,GI50,OVCAR-8,596 nM
same,GI50,OVCAR-5,527 nM
same,GI50,OVCAR-4,3750 nM
same,GI50,OVCAR-3,231 nM
same,GI50,SK-MEL-5,333 nM
same,GI50,UACC-257,564 nM
same,GI50,Malme-3M,446 nM
same,GI50,LOX IMVI,750 nM
same,GI50,UACC-62,451 nM
same,GI50,SK-MEL-28,817 nM
same,GI50,SK-MEL-2,395 nM
same,GI50,MDA-MB-435,95 nM
same,GI50,M14,373 nM
same,GI50,SW-620,349 nM
same,GI50,KM12,426 nM
same,GI50,HT-29,320 nM
same,GI50,HCT-116,457 nM
same,GI50,HCT-15,373 nM
same,GI50,[4],2700 nM
C=C(c1ccc(OC)c(O)c1)c1cc(OC)c(OC)c(OC)c1,IC50,[1],1500 nM
